US10174037B2, “Dihydropyrazolopyrimidinone compounds as PDE2 inhibitors” (Merck Sharp & Dohme Corp., priority 2015, dated 2019)
Like-named read-outs stand apart in the source and are kept apart here.

Experiments:
Rhesus PDE2A3 = Rhesus PDE2A3 (Macaca mulatta, UniProt B3VTJ2); assay: PDE2 fluorescence polarization (IMAP FP) assay, rhesus PDE2A3; type: biochemical, rhesus macaque
Method: A Labcyte Echo 555 (Labcyte, Sunnyvale, Calif.) is used to dispense 200 nL from each well of the titration plate to the 384 well assay plate. Ten microliters of a solution of enzyme (1/2000 final dilution from aliquots; sufficient to produce 20% substrate conversion) was added to the assay plate. Next 10 uL of a separate solution of the substrate FAM-labeled cAMP (50 nM final concentration product # R7506 from Molecular Devices) and the activator cGMP (1 uM final concentration), prepared in the assay buffer (10 mM Tris HCl, pH 7.2, 10 mM MgCl2, 0.05% NaN3 0.01% Tween-20, and 1 mM DTT) was added to the assay plate and shaken to mix. The reaction is allowed to proceed at room temperature for 60 minutes. A binding solution is then made from the kit components, comprised of 80% Solution A, 20% Solution B and binding reagent at a volume of 1/600 the total binding solution. The enzymatic reaction is stopped by addition of 60 μL of the binding solution to each well of the assay plates and the plates are sealed and shaken for 30 seconds. The plate was incubated at room temperature for at least one hour prior to determining the fluorescence polarization (FP). The parallel and perpendicular fluorescence of each well of the plate was measured using a Tecan Genios Pro plate reader (Tecan, Switzerland) or Perkin Elmer EnVision™ plate reader (Waltham, Mass.). Fluorescence polarization (mP) was calculated from the parallel (S) and perpendicular (P) fluorescence of each sample well and the analogous values for the median control well, containing only substrate (So and Po), using the following equation: Polarization (mP)=1000*(S/So−P/Po)/(S/So+P/Po).
Dose-inhibition profiles for each compound were characterized by fitting the mP data to a four-parameter equation given below.
An apparent (KM) for FAM-labeled cAMP of ˜10 uM was used.

human PDE2A1 = human PDE2A1 (Homo sapiens (Human), UniProt O00408); assay: PDE selectivity IMAP FP assay, human PDE2A1; type: biochemical; settings: Human PDE2; Lab B; read-out: Human PDE2 Ki (nM) Lab B
human PDE2A1, sequence (O00408 other isoform, or with tags, fused parts or gaps): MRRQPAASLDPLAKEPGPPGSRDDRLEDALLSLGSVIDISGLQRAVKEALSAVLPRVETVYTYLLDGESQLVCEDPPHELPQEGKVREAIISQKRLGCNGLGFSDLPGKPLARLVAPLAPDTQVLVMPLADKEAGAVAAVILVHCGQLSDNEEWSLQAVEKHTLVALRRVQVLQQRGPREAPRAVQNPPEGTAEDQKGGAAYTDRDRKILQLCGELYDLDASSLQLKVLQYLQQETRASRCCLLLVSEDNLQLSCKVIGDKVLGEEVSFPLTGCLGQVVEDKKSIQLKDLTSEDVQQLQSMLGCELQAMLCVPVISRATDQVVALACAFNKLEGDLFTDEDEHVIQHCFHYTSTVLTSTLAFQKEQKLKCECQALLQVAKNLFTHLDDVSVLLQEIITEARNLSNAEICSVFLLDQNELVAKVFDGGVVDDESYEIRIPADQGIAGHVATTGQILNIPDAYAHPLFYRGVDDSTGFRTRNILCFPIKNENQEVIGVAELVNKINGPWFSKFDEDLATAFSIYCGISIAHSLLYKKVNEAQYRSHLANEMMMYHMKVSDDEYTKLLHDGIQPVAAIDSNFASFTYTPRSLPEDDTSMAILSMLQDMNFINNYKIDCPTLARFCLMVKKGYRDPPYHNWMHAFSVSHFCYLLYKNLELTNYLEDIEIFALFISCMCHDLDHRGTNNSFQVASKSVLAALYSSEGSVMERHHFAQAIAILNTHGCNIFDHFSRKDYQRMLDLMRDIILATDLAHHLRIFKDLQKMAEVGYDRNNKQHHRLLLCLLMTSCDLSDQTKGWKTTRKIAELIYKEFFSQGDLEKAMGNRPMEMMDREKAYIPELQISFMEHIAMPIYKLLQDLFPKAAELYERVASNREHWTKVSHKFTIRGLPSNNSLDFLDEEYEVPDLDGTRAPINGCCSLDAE
Outline: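 Compound titrations run against PDE2 in Tris HCl pH 7.2 buffer with MgCl2 and DTT for 60 min at room temperature, using 50 nM FAM-cAMP plus 1000 nM cGMP and enzyme giving 20% conversion.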

[1] = Lab B, read-out: Rhesus PDE2 Ki (nM) Lab B

Rhesus PDE2A3, sequence (B3VTJ2 1-941): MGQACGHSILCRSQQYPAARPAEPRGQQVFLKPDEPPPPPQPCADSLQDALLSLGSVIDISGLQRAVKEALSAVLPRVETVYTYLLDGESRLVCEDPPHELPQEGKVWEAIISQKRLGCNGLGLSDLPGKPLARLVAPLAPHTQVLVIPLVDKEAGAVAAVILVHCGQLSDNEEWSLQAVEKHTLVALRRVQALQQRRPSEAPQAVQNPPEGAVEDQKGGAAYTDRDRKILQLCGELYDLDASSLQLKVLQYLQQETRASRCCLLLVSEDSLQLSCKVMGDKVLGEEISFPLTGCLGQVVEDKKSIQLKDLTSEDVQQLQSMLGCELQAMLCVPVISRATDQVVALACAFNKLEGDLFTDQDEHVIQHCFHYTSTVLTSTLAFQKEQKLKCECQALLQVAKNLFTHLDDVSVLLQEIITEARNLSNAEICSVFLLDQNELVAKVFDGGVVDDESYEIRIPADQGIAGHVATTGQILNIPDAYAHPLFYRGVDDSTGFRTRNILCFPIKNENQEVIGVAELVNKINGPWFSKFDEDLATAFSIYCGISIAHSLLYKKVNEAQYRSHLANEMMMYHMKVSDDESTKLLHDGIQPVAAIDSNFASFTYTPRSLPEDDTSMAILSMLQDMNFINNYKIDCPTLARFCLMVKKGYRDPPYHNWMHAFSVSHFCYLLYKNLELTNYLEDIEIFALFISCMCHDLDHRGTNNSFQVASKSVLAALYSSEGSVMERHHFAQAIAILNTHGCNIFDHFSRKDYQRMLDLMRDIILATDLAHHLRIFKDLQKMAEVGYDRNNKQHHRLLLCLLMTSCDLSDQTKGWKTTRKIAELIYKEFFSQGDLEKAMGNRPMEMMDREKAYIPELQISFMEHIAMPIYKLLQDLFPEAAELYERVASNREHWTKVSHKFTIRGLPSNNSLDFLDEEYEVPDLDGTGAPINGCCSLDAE

| Ki (Rhesus PDE2A3; [1]) | Ki (human PDE2A1) | Structure (SMILES) | also measured |
| --- | --- | --- | --- |
| – | – | CC(c1ccc(C(F)(F)F)cc1)n1nc(CO)c2c(=O)[nH]c(O)nc21 (single isomer, unassigned) [Example 18, (R)- or (S)-6-Hydroxy-3-(hydroxymethyl)-1-{1-[4-(trinuoromethyl)phenyl]ethyl}-1,5-dihydro-4H-pyrazolo[3,4-d]pyrimidin-4-one] | Ki (Rhesus PDE2A3; Lab A, read-out: Rhesus PDE2 Ki (nM) Lab A): > 1000 nM |
| 117 nM | – | CC(C)C(c1ccc(C(F)(F)F)c(F)c1)n1nc(CO)c2c(=O)[nH]c(O)nc21 (single isomer, unassigned) [Example 28, (S)- or (R)-1-(1-(3-F1uoro-4-(trifluoromethyl)phenyl)-2-methylpropyl)-6-hydroxy-3-(hydroxymethyl)-1H-pyrazolo[3,4-d]pyrimidin-4(5H)-one] | – |
| 12 nM | – | O=c1[nH]c(O)nc2c1c(CC(F)(F)F)nn2C(c1ccc(C(F)(F)F)cc1)C1CC1 (single isomer, unassigned) [Example 227] | – |
| 232 nM | – | CCC(c1ccc(C(F)(F)F)cc1)n1nc(C(F)F)c2c(=O)[nH]c(O)nc21 (single isomer, unassigned) [Example 285, (R)- or (S)-3-(Difluoromethyl)-6-hydroxy-1-(1-(4-(trifluoromethyl)phenyl)propyl)-1H-pyrazolo[3,4-d]pyrimidin-4(5H)-one] | – |
| 120 nM | – | O=c1[nH]c(O)nc2c1c(CC(F)(F)F)nn2C(c1ccc(OC(F)(F)F)c(F)c1)C1CC1 (single isomer, unassigned) [Example 253, (S)- or (R)-1-(Cyclopropyl(3-fluoro-4-(trifluoromethoxy)phenyl)methyl)-6-hydroxy-3-(2,2,2-trifluoroethyl)-1H-pyrazolo[3,4-d]pyrimidin-4(5H)-one] | – |
| 334 nM | – | CC(C)(C)C(c1ccc(C(F)(F)F)cc1)n1nc(CC(F)(F)F)c2c(=O)[nH]c(O)nc21 (single isomer, unassigned) [Example 262, (R)- or (S)-1-(2,2-Dimethyl-1-(4-(trifluoromethyl)phenyl)propyl)-6-hydroxy-3-(2,2,2-trifluoroethyl)-1H-pyrazolo[3,4-d]pyrimidin-4(5H)-one] | – |
| ~1400 nM | – | CC(C)C(c1ccc(C(C)(C)C)cc1)n1nc(CC(F)(F)F)c2c(=O)[nH]c(O)nc21 (single isomer, unassigned) [Example 261, (S)- or (R)-1-(1-(4-tert-Butylphenyl)-2-methylpropyl)-6-hydroxy-3-(2,2,2-trifluoroethyl)-1H-pyrazolo[3,4-d]pyrimidin-4(5H)-one] | – |
| 166 nM | – | O=c1[nH]c(O)nc2c1c(CC(F)(F)F)nn2C(c1ccc(C(F)(F)F)c(F)c1)C1CC1 (single isomer, unassigned) [Example 239, (S)- or (R)-1-(Cyclopropyl(3-fluoro-4-(trifluoromethyl)phenyl)methyl)-6-hydroxy-3-(2,2,2-trifluoroethyl)-1H-pyrazolo[3,4-d]pyrimidin-4(5H)-one] | – |
| – | 0.33 nM | CNc1nc2c(c(CO)nn2C(c2ccc(C(C)(F)F)cc2)C(C)C)c(=O)[nH]1 (single isomer, unassigned) [Example 359] | – |
| – | 0.05 nM | CN(C)c1nc2c(c(CO)nn2C(c2ccc(C(C)(F)F)cc2F)C2CC2)c(=O)[nH]1 (single isomer, unassigned) [Example 353, (S)- or (R)-1-(Cyclopropyl(4-(1,1-difluoroethyl)-2-fluorophenyl)methyl)-6-(dimethylamino)-3-(hydroxymethyl)-1H-pyrazolo[3,4-d]pyrimidin-4(5H)-one] | – |
| – | 3.2 nM | CN(C)c1nc2c(c(CO)nn2C(c2ccc(C(F)F)cc2)C2CC2)c(=O)[nH]1 (single isomer, unassigned) [Example 63] | – |
| – | 0.21 nM | CC(C)C(c1ccc(C(F)F)c(F)c1)n1nc(CO)c2c(=O)[nH]c(N(C)C)nc21 (single isomer, unassigned) [Example 115, (R)- or (S)-1-(1-(4-(Difluoromethyl)-3-fluorophenyl)-2-methylpropyl)-6-(dimethylamino)-3-(hydroxymethyl)-1H-pyrazolo[3,4-d]pyrimidin-4(5H)-one] | – |
| – | 1.1 nM | CCC(c1ccc(C(F)(F)F)cc1F)n1nc(CF)c2c(=O)[nH]c(N(C)C)nc21 (single isomer, unassigned) [Example 199, (S)- or (R)-6-(Dimethylamino)-1-(1-(2-fluoro-4-(trifluoromethyl)phenyl)propyl)-3-(fluoromethyl)-1H-pyrazolo[3,4-d]pyrimidin-4(5H)-one] | – |
| – | 47 nM | CC1(C(c2ccc(C(F)(F)F)c(F)c2)n2nc(CC(F)(F)F)c3c(=O)[nH]c(O)nc32)CC1 (single isomer, unassigned) [Example 248, (R)- or (S)-1-((3-Fluoro-4-(trifluoromethyl)phenyl)(1-methylcyclopropyl)methyl)-6-hydroxy-3-(2,2,2-trifluoroethyl)-1H-pyrazolo[3,4-d]pyrimidin-4(5H)-one] | – |
| – | 3.9 nM | CCC(c1ccc(C(F)(F)F)cc1F)n1nc(CO)c2c(=O)[nH]c(N(C)C)nc21 (single isomer, unassigned) [Example 131, (S)- or (R)-6-(Dimethylamino)-1-(1-(2-fluoro-4-(trifluoromethyl)phenyl)propyl)-3-(hydroxymethyl)-1H-pyrazolo[3,4-d]pyrimidin-4(5H)-one] | – |
| – | 346 nM | CCC(c1ccc(C(F)(F)F)cc1)n1nc(C(F)(F)F)c2c(=O)[nH]c(O)nc21 (single isomer, unassigned) [Example 331, (R)- or (S)-6-Hydroxy-3-(trifluoromethyl)-1-(1-(4-(trifluoromethyl)phenyl)propyl)-1H-pyrazolo[3,4-d]pyrimidin-4(5H)-one] | – |
| – | 3.3 nM | CCC(c1ccc(C(F)(F)F)cc1)n1nc(C(F)(F)F)c2c(=O)[nH]c(O)nc21 (single isomer, unassigned) [Example 332, (S)- or (R)-6-hydroxy-3-(trifluoromethyl)-1-(1-(4-(trifluoromethyl)phenyl)propyl)-1H-pyrazolo[3,4-d]pyrimidin-4(5H)-one] | – |
| – | 629 nM | CC(c1ccc(OC(F)F)cc1)n1nc(C(F)(F)F)c2c(=O)[nH]c(O)nc21 (single isomer, unassigned) [Example 315, (R)- or (S)-1-{1-[4-(Difluoromethoxy)phenyl]ethyl}-6-hydroxy-3-(trifluoromethyl)-1,5-dihydro-4H-pyrazolo[3,4-d]pyrimidin-4-one] | – |
| – | 382 nM | CC(c1ccc(C(F)(F)F)c(Cl)c1)n1nc(C(F)(F)F)c2c(=O)[nH]c(O)nc21 (single isomer, unassigned) [Example 327, (R)- or (S)-1-(1-(3-Chloro-4-(trifluoromethyl)phenyl)ethyl)-6-hydroxy-3-(trifluoromethyl)-1H-pyrazolo[3,4-d]pyrimidin-4(5H)-one] | – |

| Structure (SMILES) | Ki (Rhesus PDE2A3; [1]) | Ki (human PDE2A1) | also measured |
| --- | --- | --- | --- |
| CC(c1ccc(C(C)(F)F)c(F)c1)n1nc(CF)c2c(=O)[nH]c(N(C)C)nc21 (single isomer, unassigned) [Example 210, (R)- or (S)-1-(1-(4-(1,1-Difluoroethyl)-3-fluorophenyl)ethyl)-6-(dimethylamino)-3-(fluoromethyl)-1H-pyrazolo[3,4-d]pyrimidin-4(5H)-one] | – | 3.3 nM | – |
| CC(c1ccc(C(C)(F)F)cc1)n1nc(CF)c2c(=O)[nH]c(N(C)C)nc21 (single isomer, unassigned) [Example 194, (R)- or (S)-1-(1-(4-(1,1-Difluoroethyl)phenyl)ethyl)-6-(dimethylamino)-3-(fluoromethyl)-1H-pyrazolo[3,4-d]pyrimidin-4(5H)-one] | – | 6.1 nM | – |
